{"source": "paper PMC12749626", "about": "“Expediting hit-to-lead progression in drug discovery through reaction prediction and multi-dimensional optimization” (Nature Communications, 2025)", "conditions_in_all_cases": "10 uM; n=2", "key": {"NORE[…].": {"biological_target": "NORE[…]. (Homo sapiens, UniProt P23975)", "sequence (P23975 whole entry)": "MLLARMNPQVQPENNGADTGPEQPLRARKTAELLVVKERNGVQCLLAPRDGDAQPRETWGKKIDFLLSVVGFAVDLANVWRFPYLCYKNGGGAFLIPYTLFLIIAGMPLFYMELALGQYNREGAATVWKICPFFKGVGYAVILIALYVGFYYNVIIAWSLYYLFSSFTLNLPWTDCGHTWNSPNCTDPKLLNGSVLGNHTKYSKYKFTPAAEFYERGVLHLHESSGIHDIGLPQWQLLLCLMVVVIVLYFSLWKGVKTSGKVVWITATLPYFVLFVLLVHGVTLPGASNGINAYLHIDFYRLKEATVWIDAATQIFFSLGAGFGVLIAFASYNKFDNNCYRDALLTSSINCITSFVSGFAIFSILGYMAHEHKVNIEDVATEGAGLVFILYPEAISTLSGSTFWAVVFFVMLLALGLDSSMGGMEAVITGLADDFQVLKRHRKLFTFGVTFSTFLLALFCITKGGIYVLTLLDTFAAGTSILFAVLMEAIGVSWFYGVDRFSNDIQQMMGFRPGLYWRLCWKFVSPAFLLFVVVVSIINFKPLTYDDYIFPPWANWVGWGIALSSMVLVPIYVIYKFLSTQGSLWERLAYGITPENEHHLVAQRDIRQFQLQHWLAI"}, "5HT3": {"biological_target": "5HT3 (Homo sapiens, UniProt P46098)", "sequence (P46098 24-478)": "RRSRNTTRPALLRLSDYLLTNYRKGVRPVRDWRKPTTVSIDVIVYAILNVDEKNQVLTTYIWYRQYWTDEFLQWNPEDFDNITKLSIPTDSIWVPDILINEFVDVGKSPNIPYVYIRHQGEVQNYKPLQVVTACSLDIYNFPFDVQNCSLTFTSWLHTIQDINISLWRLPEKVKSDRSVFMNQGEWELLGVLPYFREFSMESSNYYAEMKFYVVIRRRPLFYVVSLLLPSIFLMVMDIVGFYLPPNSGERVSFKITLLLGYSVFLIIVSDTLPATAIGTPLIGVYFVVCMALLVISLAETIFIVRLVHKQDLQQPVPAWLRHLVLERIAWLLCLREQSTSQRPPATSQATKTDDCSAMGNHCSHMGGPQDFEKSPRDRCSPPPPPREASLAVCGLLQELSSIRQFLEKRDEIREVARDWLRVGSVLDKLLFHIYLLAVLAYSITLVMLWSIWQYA"}, "CDK2": {"biological_target": "CDK2 (Homo sapiens, UniProt P24941)"}, "XANTHINE OXIDASE": {"biological_target": "XANTHINE OXIDASE (Bos taurus, UniProt P80457)", "sequence (P80457 2-1332)": "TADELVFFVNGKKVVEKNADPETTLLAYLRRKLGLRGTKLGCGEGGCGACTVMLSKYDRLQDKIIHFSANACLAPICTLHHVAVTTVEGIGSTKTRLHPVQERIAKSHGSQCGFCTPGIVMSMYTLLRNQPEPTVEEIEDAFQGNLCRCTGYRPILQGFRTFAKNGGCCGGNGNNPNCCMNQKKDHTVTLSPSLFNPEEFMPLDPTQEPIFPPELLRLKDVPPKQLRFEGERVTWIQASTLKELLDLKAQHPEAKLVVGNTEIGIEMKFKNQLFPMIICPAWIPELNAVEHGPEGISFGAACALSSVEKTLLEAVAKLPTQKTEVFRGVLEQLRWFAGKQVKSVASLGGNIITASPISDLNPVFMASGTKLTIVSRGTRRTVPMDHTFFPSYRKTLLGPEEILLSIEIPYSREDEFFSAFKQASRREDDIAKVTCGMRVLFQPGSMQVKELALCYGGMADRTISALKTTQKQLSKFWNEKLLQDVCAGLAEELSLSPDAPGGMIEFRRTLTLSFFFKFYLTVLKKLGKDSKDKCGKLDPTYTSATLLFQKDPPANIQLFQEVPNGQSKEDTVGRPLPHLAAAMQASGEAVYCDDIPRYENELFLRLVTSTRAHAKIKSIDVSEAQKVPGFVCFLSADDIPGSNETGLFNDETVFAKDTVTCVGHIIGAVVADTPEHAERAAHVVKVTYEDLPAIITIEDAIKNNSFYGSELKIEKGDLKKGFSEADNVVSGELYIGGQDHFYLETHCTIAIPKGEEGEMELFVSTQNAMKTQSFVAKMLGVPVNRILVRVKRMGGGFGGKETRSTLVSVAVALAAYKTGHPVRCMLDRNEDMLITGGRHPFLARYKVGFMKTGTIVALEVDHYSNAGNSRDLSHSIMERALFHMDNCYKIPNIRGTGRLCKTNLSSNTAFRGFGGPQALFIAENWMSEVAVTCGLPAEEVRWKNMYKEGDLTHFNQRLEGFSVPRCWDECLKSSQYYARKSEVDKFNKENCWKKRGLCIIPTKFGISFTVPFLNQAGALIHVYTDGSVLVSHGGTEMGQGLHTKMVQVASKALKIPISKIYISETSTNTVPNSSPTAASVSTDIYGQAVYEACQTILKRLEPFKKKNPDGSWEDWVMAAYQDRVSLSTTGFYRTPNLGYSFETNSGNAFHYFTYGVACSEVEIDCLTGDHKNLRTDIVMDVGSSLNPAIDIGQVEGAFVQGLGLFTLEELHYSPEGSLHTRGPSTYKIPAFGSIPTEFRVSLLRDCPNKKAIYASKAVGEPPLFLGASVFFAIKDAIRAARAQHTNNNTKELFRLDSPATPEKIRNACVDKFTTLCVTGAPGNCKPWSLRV"}}, "data": [{"smiles": "O=C(c1ccc2nc(-c3cnccc3C3(C4CCC4)CC3)oc2c1)N1CCN(c2nc3nc(Cl)ccc3o2)CC1", "note": "[Compound 27]", "values": [{"measurement": "NORE[…]. percent activity or inhibition compared to the assay reference", "setting": "NORE[…].", "result": 28, "unit": "%"}, {"measurement": "5HT3 percent activity or inhibition compared to the assay reference", "setting": "5HT3", "result": -3, "unit": "%"}, {"measurement": "CDK2 percent activity or inhibition compared to the assay reference", "setting": "CDK2", "result": 0, "unit": "%"}, {"measurement": "XANTHINE OXIDASE percent activity or inhibition compared to the assay reference", "setting": "XANTHINE OXIDASE", "result": 6, "unit": "%"}]}]}
